Measured values from patent publication US20100113610A1, “METHODS FOR CONTROLLING INFLAMMATORY AND IMMUNOLOGICAL DISEASES” (Purdue Research Foundation, priority 2007, published 2010).

Key:
FoxP3 [1] = assay: FoxP3 induction in activated neonatal human cord blood CD4+CD25- naive T cells (RT-PCR, flow cytometry); type: cell-based; conditions: for optimal concentration for induction of FoxP3: human cord blood CD4+CD25- T cells; for induction of FoxP3+ T cells by single agent: ATRA 2 nM or TGF-β1 2 ng/ml
Description: All-trans-retinoic acid (ATRA), a major vitamin A metabolite, induces FoxP3 expression in T cells. FoxP3 is the master transcription factor for CD4^+CD25^+ regulatory T cells. […] Neonatal human cord blood CD4^+CD25^− naïve T cells were cultured in a T cell activation condition with IL-2 (25 U/ml) and phytohemagglutinin (PHA, 5 μg/m) in the presence or absence of all-trans retinoic acid (ATRA, 2 nM) for 6 days. Naïve CD4^+CD25^− T cells were activated in the absence and presence of ATRA, and examined for expression of FoxP3 mRNA and protein by RT-PCR analysis (FIG. 1A), flow cytometry analysis (FIG. 1B) and dose-dependent induction of FoxP3 by ATRA (FIG. 1C).
As RARα can be induced in T cells in response to ATRA, the function of this receptor in induction of FoxP3 was examined using an RARα antagonist, Ro41-5253. […] FoxP3 protein expression in CD4 T cells, determined by intracellular staining by PE-labeled anti-FoxP3 antibody, is shown as FACS dot plots (FIG. 3A) and graphs (FIG. 3B). Neonatal human cord blood CD4^+CD25^− T cells were cultured in a T cell activation condition with IL-2 (25 U/ml ) and PHA (5 μg/ml) in the presence and absence of indicated agonists or antagonists for 6 days. The concentrations used to obtain the data were 2 nM (ATRA), 1 μM (Ro41-5253), 5 nM (AM-580), and 10 μM (methoprene acid).
TGF-β is a potent inducer of FoxP3 (Chen et al., 2003, J Exp Med). Therefore, the interaction between ATRA and TGF-β in their effects on FoxP3 expression was examined. […] Neonatal human cord blood CD4^+CD25^− T cells were cultured in a T cell activation condition with IL-2 (100 U/ml) and PHA (5 μg/ml) in the presence and absence of indicated agonists or antagonists for 6 days. Ro41-5253 is a RARα antagonist. […] ATRA was used at 2 nM.

FoxP3 [2] = assay: FoxP3 induction in mouse DO11.10 (Rag2-/-) CD4+CD25- T cells; type: cell-based; conditions: for induction of FoxP3 in mouse T cells: irradiated splenocytes, OVA 323-339 peptide, IL-2 100 U/ml
Description: It was determined if ATRA could induce FoxP3 in mouse T cells. […] These CD4^+ CD25^− T cells were cultured in a T cell activation condition (irradiated splenocytes with […] of OVA 323-339 antigen peptide and 100 U/ml of IL-2) in the presence or absence of ATRA. […] Other retinoids such as AM-580 (a RARα agonist) and methoprene acid (a RXR agonist) were also tested.

RARα = assay: RT-PCR of RAR and RXR mRNA expression in CD4+CD25- T cells activated in ATRA; type: cell-based, human; conditions: ATRA 2 nM, IL-2 + PHA, 6 days; 6 RAR and RXR receptors
Description: RARα, RARβ and RARγ are the major receptors that are likely to mediate the function of ATRA. The mRNA expression of RARs and RXRs in freshly isolated CD4^+CD25^+ and CD4^+CD25^− T cells was determined, as well as in CD4^+CD25^−T cells activated in ATRA. Neonatal human cord blood CD4^+CD25^− naïve T cells were cultured in a T cell activation condition with IL-2 (25 U/ml) and PHA (5 μg/ml) in the presence or absence of ATRA (2 nM) for 6 days. Freshly isolated CD4^÷CD25^+ and CD4^+CD25^− cells are shown for comparison. RT-PCR was performed, and a representative set of results out of 4 independent experiments are shown.

CD4+CD25- T cells = assay: 3H-thymidine incorporation assay: proliferation and suppression of CD4+CD25- target T cells in co-culture; type: cell-based, human; conditions: treated 6-7 days
Description: ATRA-treated T cells are suppressor cells with unique effector molecules. Generally, regulatory T cells are hypo-proliferative and can suppress the proliferation of target T cells (CD4^+CD25^− T cells) in co-culture. It was therefore determined if the ATRA-induced FoxP3^+ cells had these features. […] Freshly isolated CD4^+CD25^− T cells were cultured with ATRA (2 nM), TGF-p31 (2 ng/ml) or ATRA+TGF-β1 in a T cell activation condition (IL-2 +PHA) for 6-7 days. Then, the T cells were co-cultured with CD4^+CD25^− cells for 5 additional days. A 3H-thymidine incorporation assay was performed to assess the proliferation potentials of the cultures.

granzymes = assay: Expression of granzyme A, granzyme B and perforin in induced FoxP3+ T cells; type: cell-based, human; conditions: for granzyme A expression in induced FoxP3+ cells: FoxP3+ T cells from cord blood CD4+CD25- T cells
Description: Regulatory T cells may use a number of different effector mechanisms to suppress target cells. Granzymes are a class of such effector molecules implicated in regulatory function. […] FoxP3^+ T cells, generated from cord blood CD4^+CD25^− T cells with ATRA, were examined for their expression of granzyme A, granzyme B and perforin. Also included were FoxP3^+T cells, generated with IL-2 (control) or IL-2 (25 U/ml) and TGF-β (2 ng/ml). Expression of granzyme A and B is shown in panel A. Three independent experiments were combined and averages and SEM are shown (panel B).

FoxP3 [3] = assay: Conversion of mouse naive T cells into mucosal tissue homing FoxP3+ T cells with ATRA and cytokines; type: cell-based; conditions: 6-7 days
Description: Also provided is a method with which almost all of naïve T cells can be converted into mucosal tissue homing FoxP3^+ T cells by utilizing ATRA and cytokines. Mouse naïve T cells were cultured with ATRA (1-100 nM), IL-2 (10-1000 U/ml) and TGF-β1 (1-100 ng/ml), together with TCR activators (concanavalin A or PHA at 1-10 μg/ml) for 6-7 days. […] This method reproducibly generates 92-99% pure mucosal tissue homing FoxP3^+ T cells.

FoxP3 [4] = assay: FoxP3 induction in activated neonatal human cord blood CD4+CD25- naive T cells (RT-PCR, flow cytometry); type: cell-based; conditions: very high concentration (20 μM), IL-2 + PHA, 6 days
[5] = system: α4β7+ mucosal tissue homing FoxP3+ T cells; assay: Intestinal FoxP3+ T cell numbers in mice fed food with or without vitamin A; type: in vivo, mouse; conditions: 6 weeks
Description: Regulation of mucosal FoxP3^+ cell numbers by vitamin A in vivo and in vitro. The in vivo effect of vitamin A on numbers of intestinal FoxP3^+ T cells was determined. Adult mice were fed with food with (control mice) or without vitamin A for 6 weeks, and then the numbers of FoxP3^+ T cells in small and large intestine, and mesenteric lymph nodes were determined by flow analysis (FIG. 11A).

For `CC1(C)CCC(C)(C)c2cc(C(=O)Nc3ccc(C(=O)O)cc3)ccc21` [AM-580], the “induction of FoxP3 by RARα-specific agonist” value (FoxP3 [1]; AM-580 5 nM, IL-2 + PHA, 6 days) was “able to induce FoxP3”, the “optimal concentration for induction of FoxP3” value (FoxP3 [1]; IL-2 + PHA, 6 days) was 5 nM and the “induction of FoxP3 in mouse T cells” value (FoxP3 [2]) was “good inducer of FoxP3 at low concentrations”.
For `CC1=C(/C=C/C(C)=C/C=C/C(C)=C/C(=O)O)C(C)(C)CCC1` [ATRA, All-trans-retinoic acid], the “effect of ATRA added to the culture with TGF-β on FoxP3+ T cell induction” value (FoxP3 [1]; ATRA 2 nM + TGF-β1 2 ng/ml, IL-2 100 U/ml + PHA, 6 days) was “enhanced the effect of TGF-β”, the “induction of FoxP3+ T cells by single agent” value (FoxP3 [1]; IL-2 100 U/ml + PHA, 6 days) was “clear effects” and the “levels of FoxP3 mRNA expression (RT-PCR)” value (FoxP3 [1]; ATRA 2 nM with IL-2 25 U/ml and PHA, 6 days, versus IL-2 alone) was “increased compared to IL-2 alone”. The “FoxP3+ cells at the protein level (flow cytometry)” value (FoxP3 [1]; ATRA 2 nM with IL-2 and PHA, 6 days, presence versus absence of ATRA) was “significantly more”, the “optimal concentration for induction of FoxP3” value (FoxP3 [1]; IL-2 + PHA, 6 days) was 2 to 10 nM and the “RAR and RXR family receptor mRNA expression in response to ATRA” value (RARα) was “most highly expressed receptor in response to ATRA was RARα”. For the same molecule, the “suppressive activity of treated T cells on CD4+CD25- T cells” value (CD4+CD25- T cells; co-cultured 5 additional days) was “levels similar to that of TGF-β1-treated cells”, the “proliferation potential of treated T cells (3H-thymidine incorporation)” value (CD4+CD25- T cells; compared to fresh CD4+CD25- cells and cultured control cells) was “low proliferation potential” and the “granzyme A expression in induced FoxP3+ cells” value (granzymes) was “expressed granzyme A”. For the same molecule, the “granzyme B or perforin-expressing cells among induced FoxP3+ cells” value (granzymes; versus TGF-β induced FoxP3+ cells) was “Consistently more”, the “induction of FoxP3 in mouse T cells” value (FoxP3 [2]) was “induced FoxP3 expression in T cells” and the “trafficking receptors of mouse FoxP3+ T cells primed in retinoic acid” value (FoxP3 [2]; mouse DO11.10 T cells) was “expressed the mucosal tissue homing receptors CCR9 and α4β7”. The “T cells after culture that were FoxP3+ regulatory T cells expressing the mucosal tissue homing receptor” value (FoxP3 [3]; ATRA 1-100 nM, IL-2 10-1000 U/ml, TGF-β1 1-100 ng/ml, TCR activators) was about 95% and the “purity of mucosal tissue homing FoxP3+ T cells reproducibly generated” value (FoxP3 [3]; ATRA, IL-2, TGF-β1 and TCR activators) was 92-99%.
In the case of `CCCCCCCOc1cc2c(cc1/C(C)=C/c1ccc(C(=O)O)cc1)C(C)(C)CCS2(=O)=O` [Ro41-5253], the “suppression of the FoxP3+ cell induction effect of ATRA” value (FoxP3 [1]; Ro41-5253 1 μM, ATRA 2 nM, 6 days) was “completely suppressed” and the “blocking of ATRA-induced versus TGF-β-induced FoxP3 induction” value (FoxP3 [1]; Ro41-5253, ATRA 2 nM, TGF-β1 2 ng/ml) was “blocked only ATRA-induced but not TGF-β-induced FoxP3 induction”.
In the case of `COC(C)(C)CCCC(C)C/C=C/C(C)=C/C(=O)O` (centres unmarked) [methoprene acid], the “induction of FoxP3 in mouse T cells” value (FoxP3 [2]) was “able to induce FOXP3 only at very high concentrations”, the “optimal dose for induction of FOXP3 in mouse T cells” value (FoxP3 [2]; mouse DO11.10 T cells) was about 100 µM and the “induction of FoxP3 by pan-RXR agonist” value (FoxP3 [4]) was “only marginal effects”.
In the case of “TGF-β: a potent inducer of FoxP3 (cytokine)”, the “induction of FoxP3+ T cells by single agent” value (FoxP3 [1]; IL-2 100 U/ml + PHA, 6 days) was “clear effects” and the “granzyme A expression in induced FoxP3+ cells” value (granzymes) was “did not express granzyme A at significant levels”.
For vitamin A, the “numbers of α4β7+ mucosal tissue homing FoxP3+ T cells in the large and small intestines” value ([5]; vitamin A-deficient food versus control food with vitamin A) was “significantly smaller numbers” and the “numbers of FoxP3+ T cells in lymph nodes (MLN)” value ([5]; vitamin A-deficient food versus control food) was “no reduction”.
